Each structure is given as a SMILES string. Bounds are passed on as bounds.

The subject of experiment [1] is zymostenol accumulation in EpiSC-derived OPCs (EBP). Description: GC/MS-based sterol profiling (zymostenol accumulation). In kind it is cell-based. The conditions noted are these: Mus musculus, 24 hours, 8 doses from 0.15 nM to 333 nM, read-out: Zymostenol GCMS EC50. As for the experimental part:
To assess effects of treatments on OPCs, all treatments were assayed in two or more independent platings of epiblast stem cell-derived OPCs (EpiSC). EpiSC-derived OPCs were obtained using in vitro differentiation protocols and culture conditions described previously (Najm et al, 2011, Nature Methods). OPCs were expanded and frozen down in aliquots. OPCs were thawed into growth conditions for at least one passage before use in further assays.
Sterols were monitored using a modified Folch wash protocol (Hubler et al, 2018, Nature). EpiSC-derived OPCs were plated at 100,000 cells per well in PO- and laminin-coated 96-well plates in N2B27 media without growth factors. After 24 hours, cells were rinsed with saline and plates were frozen. Cholesterol-d7 standard was then added to each well before drying under nitrogen stream and derivatization with 55 μl of bis(trimethylsilyl) trifluoroacetamide. After derivatization, 2 μl were analyzed by gas chromatography/mass spectrometry using an Agilent 5973 Network Mass Selective Detector equipped with a 6890 gas chromatograph system and a HP-5MS capillary column (30 m×0.25 mm×[…]). Samples were analyzed in full scan mode using electron impact ionization; ion fragment peaks were integrated to calculate sterol abundance, and quantitation was relative to cholesterol-d7. The following ion fragments were used to quantitate each metabolite: cholesterol-d7 (465), FF-Mas (482), cholesterol (368), zymostenol (458), zymosterol (456), Desmosterol (456, 343), 7-dehydrocholesterol (456, 325), lanosterol (393), lathosterol (458), 14-dehydrozymostenol (456, 351). […] All standards were obtained from Avanti Polar Lipids unless otherwise indicated. Calibration curves were generated by injecting varying concentrations of sterol standards and maintaining a fixed amount of cholesterol-D7. For normalized zymostenol accumulation results, the total amount of zymostenol measured after drug treatment was divided by the total amount of zymostenol accumulated after 24 hr treatment with 100 nM positive control reference.

For experiment [2], the target named is T1, human emopamil binding protein and human 7-dehydrocholesterol reductase (hEBP-DHCR7) (Homo sapiens, UniProt Q15125).
T1 construct: expressed in transfected cells; host or cells: HEK 293 cells, transient transfection with 2 DNA constructs
T1 sequence (Q15125 whole entry): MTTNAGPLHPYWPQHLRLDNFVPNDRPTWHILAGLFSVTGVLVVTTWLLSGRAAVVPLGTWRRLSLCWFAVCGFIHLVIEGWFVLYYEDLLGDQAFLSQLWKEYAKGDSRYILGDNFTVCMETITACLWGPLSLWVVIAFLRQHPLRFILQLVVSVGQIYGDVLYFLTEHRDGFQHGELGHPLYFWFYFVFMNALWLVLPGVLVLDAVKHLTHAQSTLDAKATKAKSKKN
Description: hEBP-DHCR7 radioligand filtration binding assay. The following applies: membranes of HEK293 co-expressing hEBP and DHCR7; [3H] 2-thia-6-azaspiro[3.4]octane radioligand; 8 doses 0.06 to 5000 nM. As for the experimental part:
Membrane Preparation: human emopamil binding protein and human 7-dehydrocholesterol reductase co-expressing cells were generated by transient transfecting host human embryonic kidney (HEK) 293 cells with 2 DNA constructs containing each protein's coding sequence. Cells were suspension cultured at 37° C. with 5% CO2 in […] 293 Expression Medium (Thermofisher). Whole cell membrane was prepared by harvesting the cell pellet, adding cold membrane buffer (50 mM Tris, pH7.5, lx Roche COMPLETE EDTA-free protease inhibitor cocktail) 10 times volume of the cell pellets weight, lysing cell pellet on ice by using Dounce homogenizer, spinning at 200 g 4° C. for 15 min, collecting supernatant and spinning again at 25000 g 4° C. for 50 min, transferring pellet to Dounce homogenizer, re-suspending pellet by homogenizing in membrane buffer on ice to reach ˜25 mg/mL, then keeping whole cell membrane aliquots at −80° C.
Compounds were prepared in a 96-well U bottom plate using an Echo550 machine and 10 mM compound DMSO stock solution, followed by an 8-dose 5-fold serial dilutions protocol with final testing compound concentration ranging from 0.06 to 5000 nM, with DMSO back fill to 100 nL/well and n=2. […] The UniFilter-96 GF/B plates were pre-treated by adding 50 µl/well of 0.3% (v/v) PEI to UniFilter-96 GF/B plates. The plates were sealed and incubated at 4° C. for 3 hrs. Then, the plates were washed with ice-cold assay buffer 3 times. The radioligand binding assay was prepared by adding assay buffer diluted hEBP-DHCR7 membrane at 66.7 μg/ml×150 l/well into the 96-well compound plate to reach 10 μg membrane per well. Then, the assay buffer diluted [3H]—((S)-6-(2-Methyl-3-(6-(trifluoromethyl)pyridin-3-yl)propyl)-2-thia-6-azaspiro[3.4]octane 2,2-dioxide or (R)-6-(2-Methyl-3-(6-(trifluoromethyl)pyridin-3-yl)propyl)-2-thia-6-azaspiro[3.4]octane 2,2-dioxide) was added at 25 nM×50 l/well. Following this, the plate was centrifuged at 1000 rpm for 30 secs. The plate was then sealed and agitated at 600 rpm at 22° C. for 5 min, and then incubated at 22° C. for 3 hrs. The incubation was stopped by transferring the binding solution to the pre-treated UniFilter-96 GF/B plate, vacuum filtrated, and then washed four times with ice-cold assay buffer. Following this, the plates were dried at 37° C. for 45 min. The plates were then sealed at the bottom. 40 µl/well of scintillation cocktail was added to the plates. A MicroBeta2 microplate counter was then used to read the plate and analyze the data. For reference and test compounds, the results are expressed as % Inhibition, using the normalization equation: N=100−100×(U−C2)/(C1−C2), where U is the unknown value, C1 is the average of high controls, and C2 is the average value of low controls. The IC50 was determined by fitting percentage of inhibition as a function of compound concentrations with Hill equation using XLfit. Results are expressed as hEBP-DHCR7 Ki (uM) in Table 4. Ki was calculated as described above; * indicates isolated isomer or isomers, but that the stereochemistry has not been assigned.

A word on the EC50: it is the concentration that produces a half-maximal response. In the case of `CC(C)n1nc(C(F)(F)F)cc1[C@H]1[C@@H]2C[C@H](N3CCC[C@]4(CCS(=O)(=O)C4)C3)C[C@@H]21` (single isomer, unassigned) [Compound 95*], in experiment [1], the EC50 was 58.3 nM.

Usually Ki stands for a dissociation constant, usually derived from enzyme kinetics or from competition with a known ligand. Read a low Ki as a stronger hold on the target. The compound `CC(C)n1nc(-c2cccc(C(F)(F)F)c2)nc1[C@H]1[C@@H]2C[C@H](N3CCC4(C3)CS(=O)(=O)C4)C[C@@H]21` [Compound 52, 6-((1R,3r,5S,6r)-6-(1-isopropyl-3-(3-(trifluoromethyl)phenyl)-1H-1,2,4-triazol-5-yl)bicyclo[3.1.0]hexan-3-yl)-2-thia-6-azaspiro[3.4]octane 2,2-dioxide] had a Ki in experiment [2] of 10.3 nM. In addition, in experiment [1], the EC50 amounted to 2.4 nM. In the case of `CC(C)n1nc(-c2cccc(C(F)(F)F)n2)cc1[C@H]1[C@@H]2C[C@H](N3CCC[C@@]4(CCS(=O)(=O)C4)C3)C[C@@H]21` (single isomer, unassigned) [Compound 82*], the EC50 in experiment [1] came out at 3.6 nM. In the case of `O=S1(=O)CC[C@@]2(CCCN([C@H]3C[C@@H]4[C@H](C3)[C@H]4c3cc(C(F)(F)F)nn3CC(F)F)C2)C1` (single isomer, unassigned) [Compound 88*], the Ki in experiment [2] stood at 18.9 nM. Further, the EC50 in experiment [1] was 7.7 nM.

The compound `CCn1nc(-c2cncc(F)c2)cc1[C@H]1[C@@H]2C[C@@H](N3CCC4(CC3)CS(=O)(=O)C4)C[C@@H]21` (single isomer, unassigned) [Compound 66*] yielded an inhibition constant Ki in experiment [2] of 26.4 nM. Moreover, the EC50 in experiment [1] worked out at 35 nM. Regarding `CC(C)n1nc(-c2cccc(C(F)(F)F)n2)cc1[C@H]1[C@@H]2C[C@H](N3CCC[C@]4(CCS(=O)(=O)C4)C3)C[C@@H]21` (single isomer, unassigned) [Compound 83*], the EC50 in experiment [1] came out at 41 nM. Consider `CC(C)(C)n1nc(C(F)(F)F)nc1[C@H]1[C@@H]2C[C@@H](N3CCC4(C3)CS(=O)(=O)C4)C[C@@H]21` (single isomer, unassigned) [Compound 77*], for which the Ki in experiment [2] turned out to be 93 nM. The EC50 in experiment [1] worked out at 330 nM.

In experiment [2], `O=S1(=O)CC[C@@]2(CCCN([C@@H]3C[C@@H]4[C@H](C3)[C@H]4c3cc(C(F)(F)F)nn3CC(F)F)C2)C1` (single isomer, unassigned) [Compound 86*] returned a Ki of 21.2 nM. Moreover, in experiment [1], the EC50 amounted to 13 nM.

In experiment [2], `CC(C)(C)n1nc(C(F)(F)F)nc1[C@H]1[C@@H]2C[C@H](N3CCC4(C3)CS(=O)(=O)C4)C[C@@H]21` (single isomer, unassigned) [Compound 78*] returned a Ki of 33.6 nM. Also, the EC50 in experiment [1] was determined as 53 nM. For `O=S1(=O)CC2(CCN([C@H]3C[C@@H]4[C@H](C3)[C@H]4c3cc(C(F)(F)F)n(CC(F)F)n3)CC2)C1` (single isomer, unassigned) [Compound 97] the same measures were 6.85 nM and 22.1 nM. The compound `O=S1(=O)CC[C@]2(CCCN([C@@H]3C[C@@H]4[C@H](C3)[C@H]4c3cc(C(F)(F)F)nn3CC(F)F)C2)C1` (single isomer, unassigned) [Compound 87*] came in with a Ki in experiment [2] of 94.6 nM. The EC50 in experiment [1] is above 330 nM. On the same counts, the results for `O=S1(=O)CC[C@]2(CCCN([C@H]3C[C@@H]4[C@H](C3)[C@H]4c3cc(C(F)(F)F)nn3CC(F)F)C2)C1` (single isomer, unassigned) [Compound 89*] are 128 nM and 270 nM. Turning to `CC(C)n1nc(-c2cccc(C(F)(F)F)n2)cc1[C@H]1[C@@H]2C[C@@H](N3CCC[C@]4(CCS(=O)(=O)C4)C3)C[C@@H]21` (single isomer, unassigned) [Compound 81*], the EC50 in experiment [1] was determined as 27 nM. Compound `CC(C)(C)n1nc(-c2cccc(C(F)(F)F)c2)nc1[C@H]1[C@@H]2C[C@H](N3CCC4(C3)CS(=O)(=O)C4)C[C@@H]21` (single isomer, unassigned) [Compound 76] yielded a Ki in experiment [2] of 11.8 nM. The EC50 in experiment [1] was 2.2 nM. On the same counts, the results for `CCn1nc(-c2cccnc2)cc1[C@H]1[C@@H]2C[C@@H](N3CCC4(C3)CS(=O)(=O)C4)C[C@@H]21` (single isomer, unassigned) [Compound 64*] are 203 nM and 44 nM. For `CC(C)n1nc([C@H]2CC[C@@](O)(C(F)(F)F)CC2)cc1[C@H]1[C@@H]2C[C@@H](N3CCC4(C3)CS(=O)(=O)C4)C[C@@H]21` (single isomer, unassigned) [Compound 105*] the same measures were 554 nM and 110 nM. As to `CC(C)n1nc(C(F)(F)F)cc1[C@H]1[C@@H]2C[C@H](N3CCC[C@@]4(CCS(=O)(=O)C4)C3)C[C@@H]21` (single isomer, unassigned) [Compound 94*], the 50% effective concentration (EC50) in experiment [1] turned out to be 3.47 nM. Same read-out and setting: the figure for `CC(C)n1nc(C(F)(F)F)cc1[C@H]1[C@@H]2C[C@@H](N3CCC[C@]4(CCS(=O)(=O)C4)C3)C[C@@H]21` (single isomer, unassigned) [Compound 93*] is 240 nM. Take `CCn1nc(-c2cncc(F)c2)cc1[C@H]1[C@@H]2C[C@H](N3CCC4(CC3)CS(=O)(=O)C4)C[C@@H]21` (single isomer, unassigned) [Compound 67*]: affinity in experiment [2] was put at a Ki of 171 nM. In experiment [1], the EC50 came out at 37 nM. For `O=S1(=O)CC2(CCN([C@@H]3C[C@@H]4[C@H](C3)[C@H]4c3cc(C(F)(F)F)n(CC(F)F)n3)CC2)C1` (single isomer, unassigned) [Compound 96*] the same measures were 438 nM and 37.9 nM. For `O=S1(=O)CC2(CCN([C@H]3C[C@@H]4[C@H](C3)[C@H]4c3cc(C(F)(F)F)nn3CC(F)F)C2)C1` (single isomer, unassigned) [Compound 91*] the same measures were 16.3 nM and 24 nM. In turn, `CCn1nc(-c2ccccn2)cc1[C@H]1[C@@H]2C[C@@H](N3CCC4(C3)CS(=O)(=O)C4)C[C@@H]21` [Compound 72, 6-((1R,3s,5S,6r)-6-(1-Ethyl-3-(pyridin-2-yl)-1H-pyrazol-5-yl)bicyclo[3.1.0]hexan-3-yl)-2-thia-6-azaspiro[3.4]octane 2,2-dioxide] gave a Ki in experiment [2] of 303 nM. Also, in experiment [1], the EC50 worked out at 47 nM.

Regarding `CC(C)n1nc(-c2cccc(C(F)(F)F)c2)nc1[C@H]1[C@@H]2C[C@@H](N3CCC4(CC3)CS(=O)(=O)C4)C[C@@H]21` [Compound 79, 7-((1R,3s,5S,6r)-6-(1-isopropyl-3-(3-(trifluoromethyl)phenyl)-1H-1,2,4-triazol-5-yl)bicyclo[3.1.0]hexan-3-yl)-2-thia-7-azaspiro[3.5]nonane 2,2-dioxide], the EC50 in experiment [1] was 3 nM.

Regarding `CC(C)n1nc(-c2cccc(C(F)(F)F)n2)cc1[C@H]1[C@@H]2C[C@@H](N3CCC[C@@]4(CCS(=O)(=O)C4)C3)C[C@@H]21` (single isomer, unassigned) [Compound 80*], the EC50 in experiment [1] stood at 4.3 nM.

The values above are taken from patent US20240391930A1, “SPIROCYCLIC BICYCLIC MODULATORS OF CHOLESTEROL BIOSYNTHESIS AND THEIR USE FOR PROMOTING REMYELINATION” (GENENTECH, INC., priority 2021, published 2024).
